Assay results: patent US4110472A, “Derivatives of 1-(disubstituted phenoxy)-3-amino-2-hydroxypropanes” (Bayer Aktiengesellschaft, priority 1975, dated 1978)
Counter-ions that a name gives are not always drawn.

Experiments:
[1] = tested on: 7-minute complete cerebral ischaemia; assay: Restricted circulation and mortality after a transient total cerebral ischaemia (experimental apoplexy); format: in vivo
From the text: Restricted circulation and mortality after a transient total cerebral ischaemia ("experimental apoplexy")
A 7-minute complete cerebral ischaemia is caused in curarized cats by inflating a collar placed around the neck.

in vivo = settings: mouse
[2] = tested on: amnesia induced by electric shock; assay: Protective action against amnesia induced by electric shock in male mice; format: in vivo; settings: vs propanolol and vincamine; 3 administrations at 24 h intervals, FIGS. 1-5
From the text: 1. Protective action against amnesia in male mice A modification of the method of Taber and Banuazizi (Psychopharmacol. 9, 382-91, 1966) was employed. Mice are taught to remain seated in a small compartment of a test cage and not to move into the larger compartment in which an electric shock to the foot were previously received. If a convulsive electric shock is applied to a mouse after it has been so taught, it develops amnesia and forgets the previous experience (the shock to its foot in the larger compartment),and moves from the smaller compartment into the larger compartment. By pre-treating the animals with a test substance, it is possible to determine whether these substances have any protective action against the amnesia produced. Each test substance is administered to the particular animal 3 times at intervals of 24 hours, the last administration being 1 hour before the first test. Two groups are formed for each test; a control group with amnesia and a pre-treated group. For each test group, the average value of the times which have elapsed befoe the barrier is crossed on the 2nd day is calculated. This time is taken as a criterion for the learning capacity.

cerebral blood flow [3] = assay: Increase in the cerebral blood flow in dogs (133 xenon clearance); format: in vivo; settings: FIGS. 6A, 6B and 7
From the text: (§1) Increase in the cerebral blood flow in cats and dogs Cats (1.8-3.0 kg) and dogs (18-25 kg) of both sexes are rendered analgetic with fentanyl and curarized.

cerebral blood flow [4] = assay: Increase in the cerebral blood flow in cats (133 xenon clearance); settings: for increase the cerebral blood flow (in words) / activity on cerebral blood flow (in words): cats; for increase the cerebral blood flow (in words): Tables 1 and 2, FIGS. 6A, 6B and 7; for action on cerebral blood flow at lower doses vs comparison substances: intravenous administration; for activity on cerebral blood flow (in words): peroral
From the text: as §1

Row | Structure (SMILES) | restriction in the cerebral blood flow after a 7-minute cerebral ischaemia ([1]; cats, pretreated 50 mg/kg perorally) | mortality after 7-minute cerebral ischaemia (cats died) ([1]; pretreated 50 mg/kg perorally, 94% of controls died within 48 hours, significant) | LD50 (in vivo; iv) | LD50 (in vivo; po) | protective action against amnesia induced by electric shock [2] | increase the cerebral blood flow (in words) (cerebral blood flow [3]) | increase the cerebral blood flow (in words) (cerebral blood flow [4]) | action on cerebral blood flow at lower doses vs comparison substances (cerebral blood flow [4]) | activity on cerebral blood flow (in words) (cerebral blood flow [4]; at 50 and 25 mg/kg) | LD50 (in vivo; iv, mice, intravenously) | LD50 (in vivo; po, mice, orally) | activity on cerebral blood flow (in words) (cerebral blood flow [4]; 50 mg/kg) | activity in the experimental apoplexy test (in words) ([1]; cats)
1 | C/C=C/c1ccc(OCC)c(OCC(O)CNC(c2ccccc2)c2ccccc2)c1 (stereo not drawn) [Compound A, 1-(2-ethoxy-5-trans-propenylphenoxy)-2-hydroxy-3-diphenylmethylaminopropane hydrochloride] | no restriction | 33% | 80 mg/kg | > 2000 mg/kg | considerably more effective | significantly increase | significantly increase | stronger than that of the comparison substances | distinct action | – | – | – | –
2 | C=CCc1ccc(OCC(O)CNC(c2ccccc2)c2ccccc2)c(OC)c1.Cl (centres unmarked) [Compound B, 1-(2-methoxy-4-allylphenoxy)-2-hydroxy-3-diphenylmethylaminopropane hydrochloride] | – | – | – | – | considerably more effective | significantly increase | significantly increase | stronger than that of the comparison substances | distinct action | 43 mg/kg | 450 mg/kg | – | –
3 | C/C=C/c1ccc(OCC)c(OCC(O)CNC2c3ccccc3-c3ccccc32)c1 (stereo not drawn) [Compound C, 1-(2-ethoxy-5-trans-propenylphenoxy)-2-hydroxy-3-(9-fluorenylamino)-propane] | – | – | – | – | – | significantly increase | significantly increase | stronger than that of the comparison substances | distinct action | 85 mg/kg | > 2000 mg/kg | – | –
4 | OC(CNC(c1ccccc1)c1ccccc1)COc1ccc(Cl)c(Cl)c1 (centres unmarked) [Compound D, 1-(3,4-dichlorophenoxy)-2-hydroxy-3-diphenylmethylaminopropane] | – | – | – | – | considerably more effective | significantly increase | significantly increase | stronger than that of the comparison substances | distinct action | 76 mg/kg | > 2000 mg/kg | – | –
5 | CN(C)CCCOC1(Cc2ccccc2)CCCCCC1 [bencyclan, reference compound] | – | – | – | – | – | – | – | – | – | 33 mg/kg | > 2000 mg/kg | inactive | –
6 | CC[C@]12CCCN3CCc4c(n(c5ccccc45)[C@@](O)(C(=O)OC)C1)[C@@H]32 [vincamine, reference compound] | – | – | – | – | – | – | – | – | – | 95 mg/kg | 460 mg/kg | – | inactive
